Target: TNFα (Homo sapiens, UniProt P01375)
Experiment: HEK-Blue hTNFα reporter assay
Type: cell-based
Parameters: purchased R&D biosystem (R&D Systems) 210-TA-020/CF
Details: HEK-Blue hTNFα reporter cells, SEAP readout; read-out: IC50 Range
Excerpt: Stimulation of HEK293 cells by TNFα leads to activation of the NF-κB pathway. The potency of compounds was examined in HEK-Blue™ hTNFα reporter cells (Invivogen, Cat #hkb-tnfdmyd). HEK-Blue™ TNFα cells were generated by stable transfection of HEK293 cell line with a SEAP reporter gene under the control of the […] minimal promoter fused to NF-κB binding sites. Stimulation of HEK-Blue™ TNFα cells with TNFα triggers the activation of the NF-κB-inducible promoter and the production of SEAP. Levels of SEAP in the supernatant can be easily determined using QUANTI-Blue™ Solution (Invivogen, cat #rep-qbs) by reading the OD at 620-655 nm.
HEK-Blue™ TNFα cells were cultured in DMEM supplemented with 10% FBS, 100p/mL penicillin, 100 μg/mL streptomycin, 100 μg/mL normocin, 1 μg/mL puromycin, and 100 μg/mL zeocin. The culture was maintained in culture incubator with 5% CO2 at 37° C. When used for assay, the cells were gently rinsed twice with pre-warmed phosphate buffered saline (PBS) and detached in presence of PBS by tapping the flask or by using a cell scraper. The cells were spun to remove PBS and resuspended in fresh, pre-warmed test medium (DMEM supplemented with 10% FBS, 100p/mL penicillin, and 100 μg/mL streptomycin). A serial dilution of work solution of tested compound was made in DMSO with 1000× of final concentration, and 40 nL of compound DMSO solution was transferred into 384-well plates (Corning 3764) by Echo, and incubated with 10 μL of recombinant hTNFα (R&D biosystem, Cat #210-TA-020/CF) for 1 h at 37° C. The compound/hTNFα mixture well received 30 μL HEK-Blue™ TNFα cell suspension at 10000 cells/well, and then incubated at 37° C. with 5% CO2 for 24 h. The final concentration of hTNFα is […]. After incubation, 5 μL of induced cell supernatant was transferred to a new 384-well plate well (Coring 3764) to mix with 45 μL of QUANTI-Blue Solution. After 1 h incubation at 37° C., the plate was read using a spectrophotometer at 620 nm.
The percentage of inhibition was calculated by the following formula: % inhibition=(positive control−Sample)/(positive control−negative control)*100 • Positive control: OD620 reading of cells with hTNFα stimulation. • Negative control: OD620 reading of cells without hTNFα stimulation. • Sample: OD620 reading of cells with compound at specific concentration and hTNFα stimulation
The % inhibition was plotted against compound concentration in logarithmic scale and the IC50 was rendered using 4-parameter nonlinear regression (GraphPad Prism).

Sequence of TNFα (P01375 77-233 limits assumed): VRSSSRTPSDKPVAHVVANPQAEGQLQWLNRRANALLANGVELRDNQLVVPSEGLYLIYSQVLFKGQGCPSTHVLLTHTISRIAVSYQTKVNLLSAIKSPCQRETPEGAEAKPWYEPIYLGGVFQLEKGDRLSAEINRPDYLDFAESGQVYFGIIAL

Structure (SMILES)	IC50
[2H]C([2H])([2H])N1C(=O)c2cccc(OC(F)F)c2[C@H]2C[C@@H]1c1nn3ccc(-c4cnc([C@]5(N)C[C@@H](O)C5)nc4)nc3c12 [Example 204]	25 to 100 nM
[2H]C([2H])([2H])N1C(=O)c2cccc(C#N)c2[C@H]2C[C@@H]1c1nn3cc(F)c(-c4cnc([C@]5(N)C[C@@](C)(C#N)C5)nc4)nc3c12 [Example 311]	25 to 100 nM
[2H]C([2H])([2H])N1C(=O)c2cccc(C)c2[C@H]2C[C@@H]1c1nn3ccc(-c4cnc(C5(N)CCC5)nc4)cc3c12 [Example 302, (7R,14R)-12-(2-(1-aminocyclobutyl)pyrimidin-5-yl)-1-methyl-6-(methyl-d3)-6,7-dihydro-7,14-methanobenzo[c]pyrido[1′,2′:1,5]pyrazolo[4,3-f]azocin-5 (14H)-one]	25 to 100 nM
[2H]C([2H])([2H])N1C(=O)c2cccc(OC(F)F)c2[C@H]2C[C@@H]1c1nn3ccc(-c4cnc([C@]5(N)C[C@@](C)(C#N)C5)nc4)nc3c12 [Example 56]	< 25 nM
CN1C(=O)c2ccnc(OC(F)F)c2[C@H]2C[C@@H]1c1nn3cc(F)c(-c4ccc(P(C)(C)=O)c(F)c4)cc3c12 [Example 159]	< 25 nM
CN1C(=O)c2cccc(OC(F)F)c2[C@H]2C[C@@H]1c1nn3ccc(-c4cnc([C@]5(O)CCOC5)nc4)cc3c12 [Example 63]	< 25 nM
[2H]C([2H])([2H])N1C(=O)c2cccc(OC(F)F)c2[C@H]2C[C@@H]1c1nn3ccc(-c4ccc(C5(N)CCC5)nc4)nc3c12 [Example 182]	< 25 nM
[2H]C([2H])([2H])N1C(=O)c2cccc(OC(F)F)c2[C@H]2C[C@@H]1c1nn3cc(F)c(-c4cnc(C(C)(C)N)nc4)nc3c12 [Example 287]	< 25 nM
[2H]C([2H])([2H])N1C(=O)c2cccc(OC(F)F)c2[C@H]2C[C@@H]1c1nn3ccc(-c4ccc(S(=N)(=O)CC)nc4)cc3c12 (some centres unmarked) [Example 124]	< 25 nM
[2H]C([2H])([2H])N1C(=O)c2cccc(OC(F)F)c2[C@H]2C[C@@H]1c1nn3ccc(-c4cnc([C@]5(N)C[C@@](C)(O)C5)cn4)cc3c12 [Example 209]	< 25 nM
CN1C(=O)c2cccc(OC(F)F)c2[C@H]2C[C@@H]1c1nn3ccc(-c4cnc([C@](C)(O)CO)nc4)cc3c12 [Example 83]	< 25 nM
CN1C(=O)c2cccc(OC(F)F)c2[C@H]2C[C@@H]1c1nn3ccc(-c4ncc([C@@H](O)[C@H]5CCO5)cn4)cc3c12 [Example 130]	< 25 nM
CN1C(=O)c2cccc(OC(F)F)c2[C@H]2C[C@@H]1c1nn3ccc(-c4cnc(N5CCOCC5)nc4)cc3c12 [Example 158]	< 25 nM
CN1C(=O)c2cc(F)cc(OC(F)F)c2[C@H]2C[C@@H]1c1nn3ccc(-c4ccc(P(C)(C)=O)nc4)cc3c12 [Example 35]	< 25 nM
CN1C(=O)c2cccc(OC(F)F)c2[C@H]2C[C@@H]1c1nn3ccc(-c4cnc([C@]5(N)C[C@](C)(C#N)C5)nc4)cc3c12 [Example 167]	< 25 nM
[2H]C([2H])([2H])N1C(=O)c2cccc(OC(F)F)c2[C@H]2C[C@@H]1c1nn3ccc(-c4cnc(C5(NC)CC5)nc4)nc3c12 [Example 243]	25 to 100 nM

The next lines start with the values.

IC50	Structure (SMILES)
< 25 nM	[2H]C([2H])([2H])N1C(=O)c2cccc(OC(F)F)c2[C@H]2C[C@@H]1c1nn3cc(F)c(-c4cnc([C@]5(N)C[C@@](C)(C#N)C5)nc4)nc3c12 [Example 213]
< 25 nM	[2H]C([2H])([2H])N1C(=O)c2cccc(OC(F)F)c2[C@H]2C[C@@H]1c1nn3cc(F)c(-c4cnc([C@]5(N)C[C@@](C)(O)C5)cn4)cc3c12 [Example 214]
< 25 nM	[2H]C([2H])([2H])N1C(=O)c2cccc(OC(F)F)c2[C@H]2C[C@@H]1c1nn3cc(F)c(-c4cnc([C@]5(N)C[C@@](C)(CO)C5)nc4)cc3c12 [Example 270]
< 25 nM	[2H]C([2H])([2H])N1C(=O)c2cccc(OC(F)F)c2[C@H]2C[C@@H]1c1nn3ccc(-c4cnc5c(c4)CC[C@@]5(C)N)cc3c12 [Example 328]
< 25 nM	[2H]C([2H])([2H])N1C(=O)c2ccc(F)c(OC(F)F)c2[C@H]2C[C@@H]1c1nn3ccc(-c4cnc(C(C)(C)N)nc4)nc3c12 [Example 297]
< 25 nM	C[C@]1(O)C[C@](O)(c2ncc(-c3ccn4nc5c(c4c3)[C@@H]3C[C@H]5NC(=O)c4cccc(OC(F)F)c43)cn2)C1 [Example 38]
< 25 nM	[2H]C([2H])([2H])N1C(=O)c2cccc(OC(F)F)c2[C@H]2C[C@@H]1c1nn3cc(F)c(-c4cnc([C@]5(O)C[C@@](C)(N)C5)nc4)cc3c12 [Example 284]
< 25 nM	CN1C(=O)c2cccc(OC(F)F)c2[C@H]2C[C@@H]1c1nn3cnc(-c4cnc([C@]5(N)C[C@@](C)(C#N)C5)c(F)c4)cc3c12 [Example 59]
< 25 nM	C[C@]1(C#N)C[C@](N)(c2ncc(-c3nc4c5c(nn4cc3F)[C@H]3C[C@@H]5c4c(OC(F)F)cccc4C(=O)N3)cc2F)C1 [Example 174]
< 25 nM	CN1C(=O)c2cccc(OC(F)F)c2[C@H]2C[C@@H]1c1nn3ccc(-c4cnc([C@](C)(O)C5COC5)nc4)cc3c12 [Example 86]
< 25 nM	CN1C(=O)c2cccc(OC(F)F)c2[C@H]2C[C@@H]1c1nn3ccc(-c4cnc([C@@](C)(O)C5CC5)nc4)cc3c12 [Example 80]
< 25 nM	CN1C(=O)c2cccc(OC(F)F)c2[C@H]2C[C@@H]1c1nn3ccc(-c4cnc(C5(O)CCC5)nc4)cc3c12 [Example 71]
< 25 nM	CN1C(=O)c2cccc(OC(F)F)c2[C@H]2C[C@@H]1c1nn3ccc(-c4cnc([C@@](C)(O)C(F)F)nc4)cc3c12 [Example 73]
< 25 nM	[2H]C([2H])([2H])N1C(=O)c2cccc(OC(F)F)c2[C@H]2C[C@@H]1c1nn3ccc(-c4cnc([C@]5(N)C[C@@](C)(O)C5)c(F)c4)nc3c12 [Example 189]
< 25 nM	CN1C(=O)c2cccc(OC(F)F)c2[C@H]2C[C@@H]1c1nn3cc(F)c(-c4cnc([C@@](C)(O)CC#N)nc4)cc3c12 [Example 116]
< 25 nM	CN1C(=O)c2cccc(OC(F)F)c2[C@H]2C[C@@H]1c1nn3cnc(-c4cnc(C5(N)CC(F)(F)C5)nc4)cc3c12 [Example 146]
< 25 nM	C[C@]1(O)C[C@](N)(c2ccc(-c3ccn4nc5c(c4c3)[C@@H]3C[C@H]5NC(=O)c4cccc(OC(F)F)c43)cn2)C1 [Example 224]
< 25 nM	O=C1N[C@@H]2C[C@H](c3c(OC(F)F)cccc31)c1c2nn2ccc(-c3cnc(C4(O)CCC4)nc3)cc12 [Example 140]
< 25 nM	CN1C(=O)c2cccc(OC(F)F)c2[C@H]2C[C@@H]1c1nn3ccc(-c4ccc(P(C)(C)=O)nc4)nc3c12 [Example 13, (7R,14S)-1-(difluoromethoxy)-12-(6-(dimethylphosphoryl)pyridin-3-yl)-6-methyl-6,7-dihydro-7,14-methanobenzo[c]pyrimido[1′,2′:1,5]pyrazolo[4,3-f]azocin-5 (14H)-one]
< 25 nM	CN1C(=O)c2cccc(OC(F)F)c2[C@H]2C[C@@H]1c1nn3ccc(-c4cnc([C@]5(O)CC[C@@H](O)C5)nc4)cc3c12 [Example 101]
< 25 nM	[2H]C([2H])([2H])N1C(=O)c2cccc(OC(F)F)c2[C@H]2C[C@@H]1c1nn3ccc(-c4cnc(C5(N)CCC5)nc4)nc3c12 [Example 52]

Same assay, conditions: HEK-Blue hTNFα reporter cells; read-out: TNFα reporter, Emax

Emax	Structure (SMILES)
85%	CN1C(=O)c2cccc(OC(F)F)c2[C@H]2C[C@@H]1c1nc3ccc(-c4cnc([C@]5(N)C[C@@](C)(O)C5)c(F)c4)cc3n12 [Comp. Ex #2, reference compound]
98%	CN1C(=O)c2cccc(OC(F)F)c2[C@H]2C[C@@H]1c1nn3cnc(-c4cnc([C@]5(N)C[C@@](C)(C#N)C5)c(F)c4)cc3c12 [Example 59]

Same assay, conditions: HEK-Blue hTNFα reporter cells; read-out: TNFα reporter, IC50

IC50	Structure (SMILES)
4.7 nM	CN1C(=O)c2cccc(OC(F)F)c2[C@H]2C[C@@H]1c1nc3ccc(-c4cnc([C@]5(N)C[C@@](C)(O)C5)c(F)c4)cc3n12 [Comp. Ex #2, reference compound]
4.1 nM	CN1C(=O)c2cccc(OC(F)F)c2[C@H]2C[C@@H]1c1nn3cnc(-c4cnc([C@]5(N)C[C@@](C)(C#N)C5)c(F)c4)cc3c12 [Example 59]
